Columns and labels:
[1] = molecular target: Muscarinic acetylcholine receptors; M1 & M2 (Homo sapiens) (UniProt P11229+P08172); assay: Selectivity ratio for M1 muscarinic receptor compared to M2 muscarinic receptor.; format: protein assay
[2] = molecular target: Muscarinic acetylcholine receptors; M2 & M3 (Homo sapiens) (UniProt P20309+P08172); assay: Selectivity ratio for M3 muscarinic receptor compared to M2 muscarinic receptor.; format: protein assay
[3] = molecular target: T1, Muscarinic acetylcholine receptor M2 (Homo sapiens, UniProt P08172); assay: Binding affinity at human cloned acetylcholine receptor M2 in CHO cells.; format: cell-based
T1 sequence (P08172 whole entry): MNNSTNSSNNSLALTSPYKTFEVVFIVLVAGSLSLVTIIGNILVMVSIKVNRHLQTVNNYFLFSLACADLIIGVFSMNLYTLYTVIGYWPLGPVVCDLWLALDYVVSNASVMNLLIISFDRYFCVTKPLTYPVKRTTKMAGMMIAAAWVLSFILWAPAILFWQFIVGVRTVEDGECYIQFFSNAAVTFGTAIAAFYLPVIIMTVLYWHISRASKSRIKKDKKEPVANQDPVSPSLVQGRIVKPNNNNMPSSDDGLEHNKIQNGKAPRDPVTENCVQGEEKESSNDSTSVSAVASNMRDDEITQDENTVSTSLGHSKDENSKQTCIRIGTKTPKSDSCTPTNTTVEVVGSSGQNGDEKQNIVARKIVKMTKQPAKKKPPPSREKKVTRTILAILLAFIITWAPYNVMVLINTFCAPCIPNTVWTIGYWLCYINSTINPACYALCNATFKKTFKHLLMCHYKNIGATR

Chain of Muscarinic acetylcholine receptors; M1 & M2 (Homo sapiens) (P11229 whole entry, looked up, one chain of several): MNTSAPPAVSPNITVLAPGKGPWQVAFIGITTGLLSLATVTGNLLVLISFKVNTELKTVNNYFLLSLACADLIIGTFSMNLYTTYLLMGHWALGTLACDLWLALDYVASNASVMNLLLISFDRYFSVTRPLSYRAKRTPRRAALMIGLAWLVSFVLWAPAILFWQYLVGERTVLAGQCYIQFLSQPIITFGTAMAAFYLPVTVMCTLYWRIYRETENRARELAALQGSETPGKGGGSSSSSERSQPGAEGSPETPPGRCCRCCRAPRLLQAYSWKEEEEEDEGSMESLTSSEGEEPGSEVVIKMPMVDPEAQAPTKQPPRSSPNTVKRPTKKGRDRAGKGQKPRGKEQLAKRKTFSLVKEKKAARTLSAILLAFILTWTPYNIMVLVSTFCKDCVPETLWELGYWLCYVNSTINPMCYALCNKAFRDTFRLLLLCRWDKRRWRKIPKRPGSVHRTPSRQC

Molecule CCCS(=O)(=O)N1CCC(N2CCC(C3(c4ccc(S(=O)(=O)c5ccc6c(c5)OCO6)cc4)SCCS3)CC2)CC1 has a Ratio [1] of 62.6, a Ratio [2] of 57.4 and a Ki [3] of 31 pM.

For CCOC(=O)N1CCC(N2CCC(C3(c4ccc(S(=O)(=O)c5ccc6c(c5)OCO6)cc4)O[C@@H](C)[C@H](C)O3)CC2)CC1, the Ratio [1] was 10.2, the Ratio [2] was 6.1 and the Ki [3] was 1820 pM.

For CCCS(=O)(=O)N1CCC(N2CCC(C(=O)c3ccc(S(=O)(=O)c4ccc5c(c4)OCO5)cc3)CC2)CC1, the Ratio [1] was 42.6, the Ratio [2] was 93.4 and the Ki [3] was 1020 pM.

CCCS(=O)(=O)N1CCC(N2CCC(C(=O)c3ccc([S+]([O-])c4ccc5c(c4)OCO5)cc3)CC2)CC1 (centres undefined) gave a Ratio [1] of 4.6, a Ratio [2] of 11.8 and a Ki [3] of 34800 pM.

CCCS(=O)(=O)N1CCC(N2CCC(C3(c4ccc([S+]([O-])c5ccc6c(c5)OCO6)cc4)OCCO3)CC2)CC1 (centres undefined) gave a Ratio [1] of 10.8, a Ratio [2] of 10 and a Ki [3] of 823 pM.

For CCCS(=O)(=O)N1CCC(N2CCC(C3(c4ccc([S+]([O-])c5ccc6c(c5)OCO6)cc4)CCCO3)CC2)CC1 (centres undefined), the Ratio [1] was 0.49, the Ratio [2] was 0.5 and the Ki [3] was 12100 pM.

CCCS(=O)(=O)N1CCC(N2CCC(C3(c4ccc([S+]([O-])c5ccc6c(c5)OCO6)cc4)SCCS3)CC2)CC1 (centres undefined) showed a Ratio [1] of 10.7, a Ratio [2] of 12.8 and a Ki [3] of 820 pM.

CCOC(=O)N1CCC(N2CCC(C(=O)c3ccc(S(=O)(=O)c4ccc5c(c4)OCO5)cc3)CC2)CC1 showed a Ratio [1] of 47.6, a Ratio [2] of 7.5 and a Ki [3] of 130 pM.

In the case of CCOC(=O)N1CCC(N2CCC(C3(c4ccc(S(=O)(=O)c5ccc(OC)cc5)cc4)OCCO3)CC2)CC1, the Ratio [1] is reported as 28.3, the Ratio [2] is reported as 7.1 and the Ki [3] is reported as 160 pM.

For CCOC(=O)N1CCC(N2CCC(C3(c4ccc(S(=O)(=O)c5ccc6c(c5)OCO6)cc4)O[C@H](C)[C@@H](C)O3)CC2)CC1, the Ratio [1] was 21.7, the Ratio [2] was 46 and the Ki [3] was 30 pM.

In the case of C=C(c1ccc(S(=O)(=O)c2ccc(OC)cc2)cc1)C1CCN(C2CCN(C(=O)OCC)CC2)CC1, the Ratio [1] is reported as 68.3, the Ratio [2] is reported as 21.9 and the Ki [3] is reported as 70 pM.

In the case of CCCS(=O)(=O)N1CCC(N2CCC(C3(c4ccc([S+]([O-])c5ccc6c(c5)OCO6)cc4)O[C@H](C)[C@@H](C)O3)CC2)CC1 (some centres undefined), the Ratio [1] is reported as 7.5, the Ratio [2] is reported as 12.9 and the Ki [3] is reported as 9090 pM.

Work on CCOC(=O)N1CCC(N2CCC(C3(c4ccc(S(=O)(=O)c5ccc6c(c5)OCO6)cc4)OCCO3)CC2)CC1 yielded a Ratio [1] of 4.1, a Ratio [2] of 1.3 and a Ki [3] of 73 pM.

Work on CCOC(=O)N1CCC(N2CCC(C3(c4ccc(S(=O)(=O)c5ccc(OC)cc5)cc4)SCCS3)CC2)CC1 yielded a Ratio [1] of 22.5, a Ratio [2] of 3 and a Ki [3] of 110 pM.

CCCS(=O)(=O)N1CCC(N2CCC(C3(c4ccc(S(=O)(=O)c5ccc6c(c5)OCO6)cc4)OCCO3)CC2)CC1 showed a Ratio [1] of 102 and a Ratio [2] of 93.

CCCS(=O)(=O)N1CCC(N2CCC(C3(c4ccc(S(=O)(=O)c5ccc6c(c5)OCO6)cc4)O[C@H](C)[C@@H](C)O3)CC2)CC1 gave a Ratio [1] of 8.7, a Ratio [2] of 46.1 and a Ki [3] of 1220 pM.

In the case of CCOC(=O)N1CCC(N2CCC(C3(c4ccc(S(=O)(=O)c5ccc(OC)cc5)cc4)SCCCS3)CC2)CC1, the Ratio [1] is reported as 4.4, the Ratio [2] is reported as 2.9 and the Ki [3] is reported as 14300 pM.

CCCS(=O)(=O)N1CCC(N2CCC(C3(c4ccc(S(=O)(=O)c5ccc6c(c5)OCO6)cc4)CCCO3)CC2)CC1 (centres undefined) was tested, and the Ratio [1] was 0.22, the Ratio [2] was 0.24 and the Ki [3] was 5070 pM.

CCOC(=O)N1CCC(N2CCC(C(=O)c3ccc(S(=O)(=O)c4ccc(OC)cc4)cc3)CC2)CC1 showed a Ratio [1] of 26.8, a Ratio [2] of 10.2 and a Ki [3] of 2910 pM.

In the case of CCOC(=O)N1CCC(N2CCC(C3(c4ccc(S(=O)(=O)c5ccc(OC)cc5)cc4)OCCCO3)CC2)CC1, the Ratio [1] is reported as 21, the Ratio [2] is reported as 14.4 and the Ki [3] is reported as 720 pM.
